Consider four compounds from US10047084B2, “Imidazolone derivatives, pharmaceutical compositions and uses thereof” (BEIJING FORELANDPHARMA CO. LTD., priority 2013, dated 2018).

One data set deals with SK-BR3/BT474. Put plainly: CTG cell survival assay, SK-BR3/BT474. In kind it is cell-based. Particulars: SK-BR3/BT474 cells. An outline of the steps:
(§1)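 Cells were exposed to compounds in a 3-fold dilution series, with a top final concentration of 10 uM in 0.1% DMSO. Viable cells were quantified by CellTiter-Glo ATP luminescence.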

The test system of another data set is PC-3. Put plainly: CTG cell survival assay, PC-3. It counts as cell-based. The following applies: Homo sapiens, PC-3 cells. In outline: as §1
For another data set, the system named is MV-4-11. The data set can be described thus: CTG cell survival assay, MV-4-11. It counts as cell-based. Particulars: Homo sapiens, MV4-11, MV-4-11 cells. An outline of the steps:
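Cells grown in RPMI 1640 with 10% FBS were plated and cultured 24 h at 37 °C, 5% CO2, then treated with compound diluted from 10 mM DMSO stocks. Viable cells were quantified as ATP by CellTiter-Glo luminescence.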

Data set [1] can be described thus: Solubility test in common aqueous vehicles. It counts as physicochemical. The following applies: 25° C., pH = 3.
Data set [2] is described as follows: Pharmacokinetics after oral administration, Balb/c mice. In kind it is in vivo. Particulars: mouse, plasma, 10 mg/kg. The procedure: (§2) 4. […] Blood was sampled before the administration and at 0.25 h, 0.5 h, 1 h, 2 h, 4 h, 6 h, 8 h, and 24 h after the administration.
The nature of data set [3]: Pharmacokinetics after oral administration, SD rat. It counts as in vivo. Particulars: plasma, 10 mg/kg. The procedure:
as §2

Bounds are passed on as bounds.

One may read the EC50 as the midpoint of the concentration-response curve. A low value points to an effect from little substance. On to `Cn1cc(-c2ccc(-c3ccc4ncc5c(c4c3)n(C3CCCN(S(C)(=O)=O)C3)c(=O)n5C)cn2)cn1` (stereo not drawn) [Example 3, 3-methyl-8-(6-(1-methyl-1H-pyrazol-4-yl)pyridin-3-yl)-1-(1-(methanesulfonyl)piperidin-3-yl)-1H-imidazo[4,5-c]quinolin-2(3H)-one], for which the EC50 was less than 100 nM in the data set on SK-BR3/BT474, less than 50 nM in the data set with PC-3 and less than 200 nM with MV-4-11.
The solubility is the dissolved amount per volume that the medium holds. The low end stands for little dissolved substance, the high end for much dissolved substance. In general, AUC refers to concentration integrated over time. The low end stands for low exposure, the high end for high exposure. As a reminder, the Cmax is the maximum level reached in the sampled fluid or tissue. As usually defined, the half-life is the time needed for the level to fall by half in the phase considered. `Cn1cc(-c2ccc(-c3ccc4ncc5c(c4c3)n([C@H]3CC[C@@H](O)CC3)c(=O)n5C)cn2)cn1` [Example 18, 1-((1s,4s)-4-hydroxycyclohexyl)-3-methyl-8-(6-(1-methyl-1H-pyrazol-4-yl)pyridin-3-yl)-1H-imidazo[4,5-c]quinolin-2(3H)-one] showed a solubility in data set [1] (aqueous buffer, water) of more than 5000 µg/mL. Further, the AUC in data set [2] fell in the range of 10000 to 100000 ng·h/mL. This compound displayed a Cmax in data set [2] of 5000 to 10000 ng/mL. This compound also had a half-life in data set [2] of 1 to 4 h. The concentration at 6 h in data set [2] (6 h) is 1 to 10 µM. In addition, the half-maximal effective concentration (EC50) is less than 50 nM in the data set on SK-BR3/BT474, less than 50 nM in the data set on PC-3 and less than 100 nM with MV-4-11.
As for `Cn1cc(-c2ccc(-c3ccc4ncc5c(c4c3)n([C@H]3CCN(S(C)(=O)=O)C3)c(=O)n5C)cn2)cn1` [Example 28, (S)-3-methyl-8-(6-(1-methyl-1H-pyrazol-4-yl)pyridin-3-yl)-1-(1-(methanesulfonyl)pyrrolidin-3-yl)-1H-imidazo[4,5-c]quinolin-2(3H)-one], the solubility in data set [1] (aqueous with cosolvent or surfactant or cyclodextrin, 30% sulfobutyl-β-cyclodextrin) is more than 3000 µg/mL. In data set [3], this compound had an AUC of 10000 to 100000 ng·h/mL, a Cmax of 800 to 4000 ng/mL, a half-life of 4 to 10 h and a concentration at 6 h of 1 to 10 µM. The compound further gave an EC50 in the data set on SK-BR3/BT474 of less than 50 nM. The same compound had an EC50 in the data set on PC-3 of less than 50 nM. Also, the EC50 in the data set with MV-4-11 is less than 100 nM.
In turn, `Cn1cc(-c2ccc(-c3ccc4ncc5c(c4c3)n([C@@H]3CCCN(S(C)(=O)=O)C3)c(=O)n5C)cn2)cn1` [Example 31, (R)-3-methyl-8-(6-(1-methyl-1H-pyrazol-4-yl)pyridin-3-yl)-1-(1-(methanesulfonyl)piperidin-3-yl)-1H-imidazo[4,5-c]quinolin-2(3H)-one] yielded a solubility in data set [1] (aqueous buffer, water) of more than 5000 µg/mL. In data set [3], this compound came in with an AUC of 10000 to 100000 ng·h/mL, a Cmax of 800 to 4000 ng/mL, a half-life of 4 to 10 h and a concentration at 6 h of 1 to 10 µM. In addition, the EC50 in the data set on SK-BR3/BT474 was less than 100 nM. In the data set with PC-3, this compound registered an EC50 of 19 nM. The compound further registered an EC50 in the data set with MV-4-11 of less than 100 nM.
